The test deals with human PAD4 (hPAD4) (Homo sapiens (Human), UniProt Q9UM07). Description: RFMS Human PAD4 Functional Assay. It counts as biochemical. The conditions noted are these: rapid-fire mass spectrum (RFMS) assay; 5 nM hPAD4 enzyme, 250 μM BAEE, 30 min preincubation at 37° C.

Each structure is given as a SMILES string.

26 compounds from patent US12492202B2, “Macrocyclic PAD4 inhibitors useful as immunosuppressant” (BRISTOL-MYERS SQUIBB COMPANY, priority 2020, dated 2025) can be followed below.

human PAD4 (hPAD4), sequence (Q9UM07 whole entry): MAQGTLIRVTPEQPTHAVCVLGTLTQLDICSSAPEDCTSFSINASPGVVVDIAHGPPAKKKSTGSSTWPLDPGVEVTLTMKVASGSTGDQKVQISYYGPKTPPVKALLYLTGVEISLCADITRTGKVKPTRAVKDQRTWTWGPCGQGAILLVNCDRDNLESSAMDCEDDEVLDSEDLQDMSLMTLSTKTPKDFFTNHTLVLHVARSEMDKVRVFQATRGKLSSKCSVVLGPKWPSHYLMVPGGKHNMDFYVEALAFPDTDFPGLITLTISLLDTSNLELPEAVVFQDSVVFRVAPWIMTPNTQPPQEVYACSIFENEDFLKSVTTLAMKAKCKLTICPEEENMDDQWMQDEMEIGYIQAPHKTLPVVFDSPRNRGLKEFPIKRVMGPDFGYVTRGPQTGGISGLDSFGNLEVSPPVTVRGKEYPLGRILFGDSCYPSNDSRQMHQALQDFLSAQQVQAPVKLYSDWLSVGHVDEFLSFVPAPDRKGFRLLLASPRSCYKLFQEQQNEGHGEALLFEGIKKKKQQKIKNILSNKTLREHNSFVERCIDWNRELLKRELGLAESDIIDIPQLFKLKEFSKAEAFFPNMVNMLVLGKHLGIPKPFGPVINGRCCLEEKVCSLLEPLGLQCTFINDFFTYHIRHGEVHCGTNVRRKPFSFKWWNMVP
Description: RFMS Human PAD4 Functional Assay: Compounds were solubilized in 100% DMSO to achieve a 10 mM compound concentration. Compound stock solutions were stored at RT. A series of dilutions were prepared in DMSO and mixed 8 times with 20 μL mixing volume. Final top concentration of compound in the assay is 50 μM. Final assay conditions were as follows: • Reaction volume: 26 μl • Assay buffer: 25 mM hepes, pH 7.5, 5 mM NaCl, 1 mM DTT, 0.2 mg/ml BSA, 0.01% CHAPS, 50 μM Calcium, and 5 μM TPEN • Final concentrations: 5 nM hPAD4 enzyme, 250 μM BAEE, and 0.5% DMSO • Total incubation time: 30 mins compound and enzyme preincubation at 37° C., 90 min enzyme/substrate reaction, 30 min reaction with phenyl glyoxal at 37° C. • Stop solution: 40 μl 5% TCA in ACN 0.13 μL of compound solution was added to 13 μL of 10 nM PAD4 in assay buffer. After 30 min 13 μl of 500 μM of BAEE was added in 25 mM hepes, pH 7.5, 5 mM NaCl, 1 mM DTT, 0.2 mg/ml BSA, 0.01% CHAPS, 50 μM Calcium, 5 μM TPEN was added and the reaction incubated for 90 min at 37° C. The enzymatic reaction was quenched by addition of 15 μl of 6.1N TCA, 100% Final Concentration is 20%, 35 μl of 8.5 mM phenyl glyoxal (final concentration 4 mM) is then added and the reaction is incubated for 30 min at 37° C. After 30 minutes the plates are spun down to remove all precipitate. The enzyme reaction was quenched with an equal volume of methanol containing internal standard (modified citrulline). Samples were loaded onto the Rapid Fire RF300 system (Agilent) wherein they were first sipped for 1000 ms and then directly loaded to a C18 separations cartridge using a mixture of acetonitrile containing 0.01% formic acid for 3000 ms desalting. The flow rate of the mobile phase was 1.5 ml/min. Once the samples were eluted from the cartridge, a mobile phase of acetonitrile containing 0.01% formic acid was used to move the samples into the mass spectrometer for 4000 ms at a flow rate of 1.25 ml/min/Sciex API5500 triple quadrupole mass spectrometer (Applied Biosystems) equipped with ESI was used to analyze the peptidyl citrulline and internal standard ions. MRM transition of product and internal standard were monitored at m/z 424.5 to 350.4 and m/z 293 to 247 respectively. The dwell time for each transition was set at 200 ms, and the ESI voltage was used at 5500 with a source temperature of 400° C. Extracted ion peaks for each transition were integrated using the Rapid Fire Integrator software. Peak area of analyte was normalized with internal standard).

Usually IC50 stands for the point on the concentration scale where inhibition reaches its midpoint. Low values mean inhibition by little substance, high ones a need for much substance. `COc1cc(C(=O)N2C[C@H]3CC[C@@H]2[C@@H]3N)cc2nc3n(c12)Cc1cccc(c1)[C@H](O)[C@H](O)CCCCn1c-3cc2cccnc21` (relative stereo) [Example 47, ((1R,4R,7R)-7-amino-2-azabicyclo[2.2.1]heptan-2-yl)((5S,6R)-5,6-dihydroxy-27-methoxy-1^1H,2^1H-1,2(2,1)-dipyrrolo[2,3-b]pyridina-4(1,3)-benzenacyclodecaphane-25-yl)methanone] showed a 50% inhibitory concentration (IC50) of 88 nM. With `COc1cc(C(=O)N2C[C@H]3CC[C@@H]2[C@@H]3N)cc2nc3n(c12)Cc1cccc(c1)[C@H](O)[C@H](O)CCCCn1c-3cc2cccnc21` (relative stereo) [Example 48, ((1R,4R,7R)-7-amino-2-azabicyclo[2.2.1]heptan-2-yl)((5S,6R)-5,6-dihydroxy-27-methoxy-1^1H,2^1H-1,2(2,1)-dipyrrolo[2,3-b]pyridina-4(1,3)-benzenacyclodecaphane-25-yl)methanone], the IC50 was determined as 92 nM. In turn, `COc1cc(C(=O)N2C[C@H]3CC[C@@H]2[C@@H]3N)cc2nc3n(c12)CC1CC(=O)N(C1)c1ccccc1CCCCn1c-3cc2cccnc21` (single isomer, unassigned) [Example 37] gave a concentration for half-maximal inhibition (IC50) of 19 nM. Compound `COc1cc(C(=O)N2C[C@H]3CC[C@@H]2[C@@H]3N)cc2nc3n(c12)CC1CC(=O)N(C1)c1ccccc1CCCCn1c-3cc2cccnc21` (single isomer, unassigned) [Example 38] showed an IC50 of 78 nM.

Compound `COc1cc(C(=O)N2C[C@H]3CC[C@@H]2[C@@H]3N)cc2nc3n(c12)Cc1cccc(c1)[C@H](O)[C@H](O)CCCCn1c-3cc2cccnc21` (single isomer, unassigned) [Example 45] had an IC50 of 30.6 nM. Compared with the last compound, the IC50 is about 2.5-fold lower. `COc1cc(C(=O)N2C[C@H]3CC[C@@H]2[C@@H]3N)cc2nc3n(c12)Cc1cccc(c1)[C@H](O)[C@H](O)CCCCn1c-3cc2cccnc21` (single isomer, unassigned) [Example 46] had an IC50 of 44.8 nM.

`COc1cc(C(=O)N2C[C@H](N)C[C@@H](F)C2)cc2nc3n(c12)Cc1cccc(c1)[C@H](O)[C@H](O)CCCCn1c-3cc2cccnc21` (single isomer, unassigned) [Example 49] returned a concentration for half-maximal inhibition (IC50) of 292 nM. `COc1cc(C(=O)N2C[C@H](N)C[C@@H](F)C2)cc2nc3n(c12)Cc1cccc(c1)[C@H](O)[C@H](O)CCCCn1c-3cc2cccnc21` (single isomer, unassigned) [Example 50] had an IC50 of 837 nM. The compound `COc1cc(C(=O)N2CC3CCC2[C@@H]3N)cc2nc3n(c12)Cc1cccc(c1)/C=C\CCCCn1c-3cc2cccnc21` (stereo in doubt) [Example 41, ((1R,4R,7R)-7-Amino-2-azabicyclo[2.2.1]heptan-2-yl)((Z)-27-methoxy-11H,21H-1,2(2,1)-dipyrrolo[2,3-b]pyridina-4(1,3)-benzenacyclodecaphan-5-en-25-yl)methanone] showed an IC50 of 44.9 nM. Compared with the last compound, the IC50 is about 19-fold lower. Regarding `COc1cc(C(=O)N2CC3CCC2[C@@H]3N)cc2nc3n(c12)Cc1cnn(c1)CCCCCn1c-3cc2ccccc21` (stereo partly drawn) [Example 1, ((7R)-7-Amino-2-azabicyclo[2.2.1]heptan-2-yl)((Z)-2^7-methoxy-1^1H,2^1H,4^1H-2(2,1)-benzo[d]imidazola-1(2,1)-indola-4(4,1)-pyrazolacyclononaphane-2^5-yl)methanone], half-maximal inhibition (IC50) was put at 255 nM. For `COc1cc(C(=O)N2CC3CCC2[C@@H]3N)cc2nc3n(c12)Cc1cnn(c1)CCCCCCn1c-3cc2cccnc21` (stereo partly drawn) [Example 2, ((7R)-7-Amino-2-azabicyclo[2.2.1]heptan-2-yl)((Z)-2^7-methoxy-1^1H,2^1H,4^1H-1,2(2,1)-dipyrrolo[2,3-b]pyridina-4(4,1)-pyrazolacyclodecaphane-2^5-yl)methanone] the value was 1370 nM. As to `COc1cc(C(=O)N2C[C@H](N)C[C@@H](F)C2)cc2nc3n(c12)Cc1cnn(c1)-c1ccccc1OCCCn1c-3cc2ccccc21` [Example 3, ((3R,5R)-3-Amino-5-fluoropiperidin-1-yl)((Z)-2^7-methoxy-1^1H,2^1H,4^1H-6-oxa-2(2,1)-benzo[d]imidazola-1(2,1)-indola-4(4,1)-pyrazola-5(1,2)-benzenacyclononaphane-2^5-yl)methanone], the IC50 is 19 nM. Against the preceding compound, the IC50 is about 72-fold lower. As for `COc1cc(C(=O)N2CC3CCC2[C@@H]3N)cc2nc3n(c12)Cc1cnn(c1)CCCCCCn1c-3cc2ccccc21` (stereo partly drawn) [Example 4, ((7R)-7-amino-2-azabicyclo[2.2.1]heptan-2-yl)((Z)-2^7-methoxy-1^1H,2^1H,4^1H-2(2,1)-benzo[d]imidazola-1(2,1)-indola-4(4,1)-pyrazolacyclodecaphane-2^5-yl)methanone], the figure is 24 nM. `COc1cc(C(=O)N2C[C@H](N)C[C@@H](F)C2)cc2nc3n(c12)Cc1cnn(c1)CCCCCCCn1c-3cc2ccccc21` [Example 5, ((3R,5R)-3-amino-5-fluoropiperidin-1-yl)((Z)-2^7-methoxy-1^1H,2^1H,4^1H-2(2,1)-benzo[d]imidazola-1(2,1)-indola-4(4,1)-pyrazolacycloundecaphane-2^5-yl)methanone] returned a half-maximal inhibitory concentration (IC50) of 37 nM. Compound `COc1cc(C(=O)N2CC3CCC2[C@@H]3N)cc2nc3n(c12)Cc1cnn(c1)CCCCCCCn1c-3cc2ccccc21` (stereo partly drawn) [Example 6, ((7R)-7-amino-2-azabicyclo[2.2.1]heptan-2-yl)((Z)-2^7-methoxy-1^1H,2^1H,4^1H-2(2,1)-benzo[d]imidazola-1(2,1)-indola-4(4,1)-pyrazolacycloundecaphane-2^5-yl)methanone] showed an IC50 of 31 nM. Compound `COc1cc(C(=O)N2C[C@H](N)C[C@@H](F)C2)cc2nc3n(c12)Cc1cnn(c1)CCCCCCn1c-3cc2cccnc21` [Example 8, ((3R,5R)-3-amino-5-fluoropiperidin-1-yl)((Z)-2^7-methoxy-1^1H,2^1H,4^1H-1,2(2,1)-dipyrrolo[2,3-b]pyridina-4(4,1)-pyrazolacyclodecaphane-2^5-yl)methanone] registered an IC50 of 277 nM. `COc1cc(C(=O)N2C[C@H](N)C[C@@H](F)C2)cc2nc3n(c12)Cc1cnn(c1)CCCCCCCn1c-3cc2cccnc21` [Example 9, ((3R,5R)-3-amino-5-fluoropiperidin-1-yl)((Z)-2^7-methoxy-1^1H,2^1H,4^1H-1,2(2,1)-dipyrrolo[2,3-b]pyridina-4(4,1)-pyrazolacycloundecaphane-2^5-yl)methanone] had a concentration for half-maximal inhibition (IC50) of 612 nM. `COc1cc(C(=O)N2CC3CCC2[C@@H]3N)cc2nc3n(c12)Cc1cnn(c1)CCCCCCCn1c-3cc2cccnc21` (stereo partly drawn) [Example 10, ((7R)-7-amino-2-azabicyclo[2.2.1]heptan-2-yl)((Z)-2^7-methoxy-1^1H,2^1H,4^1H-1,2(2,1)-dipyrrolo[2,3-b]pyridina-4(4,1)-pyrazolacycloundecaphane-2^5-yl)methanone] had an IC50 of 137 nM. This IC50 lies about 4.5-fold lower than the previous one. Consider `COc1cc(C(=O)N2CCC[C@@H](N)C2)cc2nc3n(c12)Cc1cnn(c1)CCCCCCn1c-3cc2cccnc21` [Example 11, ((R)-3-aminopiperidin-1-yl)((Z)-2^7-methoxy-1^1H,2^1H,4^1H-1,2(2,1)-dipyrrolo[2,3-b]pyridina-4(4,1)-pyrazolacyclodecaphane-2^5-yl)methanone], for which the half-maximal inhibitory concentration (IC50) turned out to be 18800 nM. This IC50 lies about 140-fold higher than the previous one.

Regarding `COc1cc(C(=O)N2CC3CCC2[C@@H]3N)cc2nc3n(c12)Cc1cnn(c1)CCCCCCn1c-3cc2ccccc21` (stereo partly drawn) [Example 12, ((7R)-7-amino-2-azabicyclo[2.2.1]heptan-2-yl)((E)-2^7-methoxy-1^1H,2^1H,4^1H-2(2,1)-benzo[d]imidazola-1(2,1)-indola-4(3,1)-pyrazolacyclodecaphane-2^5-yl)methanone], the 50% inhibitory concentration (IC50) came to 47 nM.

As for `COc1cc(C(=O)N2C[C@H](N)C[C@@H](F)C2)cc2nc3n(c12)Cc1cnn(c1)CCCCCCn1c-3cc2ccccc21` [Example 13, ((3R,5R)-3-amino-5-fluoropiperidin-1-yl)((E)-2^7-methoxy-1^1H,2^1H,4^1H-2(2,1)-benzo[d]imidazola-1(2,1)-indola-4(3,1)-pyrazolacyclodecaphane-2^5-yl) methanone], the IC50 amounted to 66 nM. The IC50 values of the last two compounds are within 1.5-fold of each other.

For `COc1cc(C(=O)N2CC3CCC2[C@@H]3N)cc2nc3n(c12)Cc1cnn(c1)-c1ccccc1OCCCn1c-3cc2ccccc21` (stereo partly drawn) [Example 14, ((7R)-7-amino-2-azabicyclo[2.2.1]heptan-2-yl)((Z)-2^7-methoxy-1^1H,2^1H,4^1H-6-oxa-2(2,1)-benzo[d]imidazola-1(2,1)-indola-4(4,1)-pyrazola-5(1,2)-benzenacyclononaphane-2^5-yl) methanone], half-maximal inhibition (IC50) required 11 nM. `COc1cc(C(=O)N2C[C@H](N)C[C@@H](F)C2)cc2nc3n(c12)Cc1cnn(c1)-c1ccccc1OCCCn1c-3cc2cccnc21` [Example 15, ((3R,5R)-3-amino-5-fluoropiperidin-1-yl)((Z)-2^7-methoxy-1^1H,2^1H,4^1H-6-oxa-1,2(2,1)-dipyrrolo[2,3-b]pyridina-4(4,1)-pyrazola-5(1,2)-benzenacyclononaphane-2^5-yl)methanone] displayed a 50% inhibitory concentration (IC50) of 40 nM.

The compound `COc1cc(C(=O)N2CC3CCC2[C@@H]3N)cc2nc3n(c12)Cc1cnn(c1)-c1ccccc1OCCCn1c-3cc2cccnc21` (stereo partly drawn) [Example 16, ((7R)-7-amino-2-azabicyclo[2.2.1]heptan-2-yl)((Z)-2^7-methoxy-1^1H,2^1H,4^1H-6-oxa-1,2(2,1)-dipyrrolo[2,3-b]pyridina-4(4,1)-pyrazola-5(1,2)-benzenacyclononaphane-2^5-yl)methanone] came in with an IC50 of 15 nM. `COc1cc(C(=O)N2CC3CCC2[C@@H]3N)cc2nc3n(c12)Cc1ccn(n1)-c1ccccc1OCCCn1c-3cc2cccnc21` (stereo partly drawn) [Example 17, ((7R)-7-amino-2-azabicyclo[2.2.1]heptan-2-yl)((E)-2^7-methoxy-1^1H,2^1H,4^1H-6-oxa-1,2(2,1)-dipyrrolo[2,3-b]pyridina-4(3,1)-pyrazola-5(1,2)-benzenacyclononaphane-2^5-yl) methanone] returned a half-inhibitory concentration (IC50) of 11 nM. The IC50 values of the last two compounds are within 1.5-fold of each other. `COc1cc(C(=O)N2C[C@H](N)C[C@@H](F)C2)cc2nc3n(c12)Cc1ccn(n1)-c1ccccc1OCCCn1c-3cc2cccnc21` [Example 18, ((3R,5R)-3-amino-5-fluoropiperidin-1-yl)((E)-2^7-methoxy-1^1H,2^1H,4^1H-6-oxa-1,2(2,1)-dipyrrolo[2,3-b]pyridina-4(3,1)-pyrazola-5(1,2)-benzenacyclononaphane-2^5-yl)methanone] showed an IC50 of 9 nM.
